According to PMC6915728 (Nature Communications, 2019):
Like-named read-outs stand apart in the source and are kept apart here.

How the values were obtained:
[1] = system: E. coli K12 BW25113 carrying the pooled ASKA overexpression plasmid library (~4400 ORFs); experiment: Chemical-genetic profiling: pooled competitive growth of the ASKA gene-overexpression library with and without AMP, deep sequencing readout; format: cell-based, Escherichia coli; details: overexpressed gene aaaD; presence vs absence of AMP; average of biological replicates
Source text: We generated chemical-genetic interaction profiles for a diverse set of AMPs (Table 1) by screening them against a comprehensive library of gene overexpressions in E. coli[21]. Increasing gene dosage is a widely applied approach to reveal the targets of small-molecule antibiotics[22],[23]. It also informs on the ‘latent resistome’, that is, the collection of genes where a change from native expression level enhances resistance to a particular drug[24]. We applied a sensitive competition assay by monitoring growth of a pooled plasmid library, overexpressing all the E. coli ORFs (Fig. 1a), as we reported earlier. Specifically, E. coli cells carrying the pooled plasmid collection were grown in the presence or absence of one of the 15 AMPs tested, at a sub-inhibitory concentration that increased the doubling time of the whole population by 2-fold. Following 12 generations of growth, the plasmid pool was isolated from each selection and the relative abundance of each plasmid was determined by a deep sequencing readout (see Methods).
We carried out chemical-genetic profiling to determine the impact of the overexpression of each E. coli ORF on bacterial susceptibility to each of the 15 different AMPs. To this end, we used the complete set of E. coli K-12 Open Reading Frame Archive (ASKA) plasmid library (GFP minus) where each E. coli ORF is cloned into a high copy number expression plasmid (pCA24N-ORFGFP(-)). Prior to screening, the ASKA library was grown in the original host strain E. coli K-12 AG1 in 96-well plates (growth conditions: 37 °C, 280 rpm, LB medium). An equal aliquot of each member of the ASKA library (each well of the 96-well plates) was pooled together and the plasmid DNA (pCA24N-ORF-GFP(-)) was isolated and transformed into E. coli K12 BW25113 strain[51]. To obtain a negative control strain not having any overexpressed gene, the plasmid without a cloned ORF (pCA24N-noORF) was also transformed into the same E. coli strain. Then, on the pooled collection, we applied a previously reported competitive growth assay. Specifically, the pooled overexpression library and the control strain were grown in parallel in MS medium supplemented with 20 µg per ml chloramphenicol and the overexpression was induced by 100 µM isopropyl-ß-D-thiogalactopyranoside (IPTG). After 1 h induction, ~5 × 10^5 bacterial cells from the library were inoculated into each well of a 96-well microtiter plate containing a concentration gradient of an AMP in the MS medium supplemented with 20 µg per ml chloramphenicol and 100 µM IPTG. At the same time, both the library and the control strain with the empty plasmid were grown in the absence of any AMPs. We took special care to grow both of these samples in the exact same conditions as the samples in the presence of AMPs. Bacterial growth was monitored in a microplate reader (Biotek Synergy 2) for 24 h. At the end of the exponential growth phase, we selected those wells in which the doubling time of the cell population was increased by 2-fold. Then, from these wells, cells were split into four equal proportion and each was transferred into 20 mL of MS medium supplemented with the corresponding AMP in four different concentrations in the range that slowed down growth by two-fold in the microtitre plate. […] The rationale for this 2-step process was to maintain competition in exponential phase for 12 generations of growth, efficiently control the growth rate in a reproducible manner and obtain the plasmid pool with standard DNA isolation protocol (innuPREP plasmid mini Kit, Analytik Jena AG) in a yield that is enough for the downstream analysis. The cultures were vigorously shaken along the entire protocol to make sure that the cultures are completely homogeneous and therefore biasing interactions between clones (such as trans-resistance) was minimized. […]

[2] = system: E. coli BW25113 overexpression strains (ASKA plasmids); experiment: Minimum inhibitory concentration (MIC), serial broth dilution, single-gene overexpression strains vs empty-vector control; format: cell-based, Escherichia coli; details: broth dilution, MS medium, 100 µM IPTG, 30 °C, 20-24 h, OD600, 3 replicates
Experimental: Minimum inhibitory concentrations (MIC) were determined with a standard serial broth dilution technique with a minor modification. Specifically, instead of a two-fold dilution series, smaller AMP concentration steps were used (typically 1.2-fold) for two reasons. […] Second, gene overexpressions caused typically only small changes in the MICs of AMPs and therefore higher resolution was required. The protocol was as follows. From a stock solution of an AMP, 12-steps serial dilution was prepared in fresh MS medium in 96-well microtiter plates. Each AMP was represented in 11 different concentrations (3 wells per AMP concentration per strain). Three wells contained only medium to check the growth in the absence of AMP. After overnight growth in MS medium supplemented with chloramphenicol, bacterial strains were diluted 20-fold into fresh MS medium and grown until the cell density reached OD600 ~1. Cells were induced by 100 µM of IPTG and incubated for 1 h at 30 °C with continuous shaking at 300 rpm. Following incubation, approximately half-million cells were inoculated into the wells of the 96-well microtiter plate with a 96‐pin replicator. We used three independent replicates for each strain and the corresponding control. Two rows in the 96-well plate contained only MS medium in order to obtain the background OD value of the medium. Plates were incubated at 30 °C with continuous shaking at 300 rpm. After 20–24 h of incubation, OD600 values were measured in a microplate reader (Biotek Synergy 2).

[3] = system: E. coli gene overexpression; details: gene prfA overexpressed; ref 11 (Matsumoto et al. 2017); cited from earlier work
Source text: Supplement 41467_2019_13618_MOESM1_ESM.docx, table 1: Supplementary Table 1. Collected examples of E. coli gene overexpression from the literature as a confirmation of our chemical-genetic screen results. | column: Overexpression phenotype

bacterial membrane = details: literature mining; ref superscript numbers in the cell, listed in Supplementary Data 7 sheet References; cited from earlier work
Source text: Supplement 41467_2019_13618_MOESM10_ESM.xlsx, sheet "AMP details" | column: Pore formation

[4] = system: AMP-evolved E. coli lines; details: ref Spohn et al 2019, cited from earlier work
Source text: Supplement 41467_2019_13618_MOESM13_ESM.xlsx, sheet "Figure 6 and S15" | column: A comprehensive dataset of antimicrobial susceptibility of AMP-adapted lines to antimicrobial peptides (AMPs).

[5] = overexpression strain mlaD, MIC of the overexpression strain / MIC of the control strain (wild-type carrying the empty plasmid)

Sequence: GNNRPVYIPQPRPPHPRL [AP, Apidaecin IB, antimicrobial peptide, source Apis mellifera L; cluster C3]
- Chemical-genetic score [1]: -0.578 log2 fold change
- Relative MIC ([2]; overexpression strain cvpA, MIC of overexpression strain / MIC of empty-plasmid control): 0.64
- Relative MIC ([2]; overexpression strain gadW, MIC of overexpression strain / MIC of empty-plasmid control): 2.5
- Relative MIC ([2]; overexpression strain lptB, MIC of overexpression strain / MIC of empty-plasmid control): 0.64
- Relative MIC [2, 5]: 0.6
- Overexpression phenotype, Literature [3]: Resistance^11

Sequence: GWGSFFKKAAHVGKHVGKAALTHYL [PLEU, Pleurocidin, antimicrobial peptide from Pleuronectes americanus; cluster C2]
- Relative MIC [2, 5]: 1
- Relative MIC ([2]; overexpression strain nikB, MIC of overexpression strain / MIC of empty-plasmid control): 0.8
- Pore formation (whether AMP makes pores in the bacterial membrane) (bacterial membrane): Yes18
- Relative change in MIC (MIC of the AMP-adpated line / MIC of the ancestral strain) ([4]; AMP-adapted line BAC5_3): 1
- Relative change in MIC (MIC of the AMP-adpated line / MIC of the ancestral strain) ([4]; AMP-adapted line BAC5_5): 0.8
- Relative change in MIC (MIC of the AMP-adpated line / MIC of the ancestral strain) ([4]; AMP-adapted line BAC5_7): 1
- Relative change in MIC (MIC of the AMP-adpated line / MIC of the ancestral strain) ([4]; AMP-adapted line BAC5_10): 1
- Relative change in MIC (MIC of the AMP-adpated line / MIC of the ancestral strain) ([4]; AMP-adapted line CAP18_2): 2.1
- Relative change in MIC (MIC of the AMP-adpated line / MIC of the ancestral strain) ([4]; AMP-adapted line CAP18_5): 2.5
- Relative change in MIC (MIC of the AMP-adpated line / MIC of the ancestral strain) ([4]; AMP-adapted line CAP18_6): 2.3
- Relative change in MIC (MIC of the AMP-adpated line / MIC of the ancestral strain) ([4]; AMP-adapted line CAP18_8): 1.7
- Relative change in MIC (MIC of the AMP-adpated line / MIC of the ancestral strain) ([4]; AMP-adapted line CAP18_10): 4.3
- Relative change in MIC (MIC of the AMP-adpated line / MIC of the ancestral strain) ([4]; AMP-adapted line HBD3_3): 1.3
- Relative change in MIC (MIC of the AMP-adpated line / MIC of the ancestral strain) ([4]; AMP-adapted line HBD3_6): 1.7
- Relative change in MIC (MIC of the AMP-adpated line / MIC of the ancestral strain) ([4]; AMP-adapted line HBD3_8): 1.7
- Relative change in MIC (MIC of the AMP-adpated line / MIC of the ancestral strain) ([4]; AMP-adapted line HBD3_10): 1.3
- Relative change in MIC (MIC of the AMP-adpated line / MIC of the ancestral strain) ([4]; AMP-adapted line LL37_1): 1.4
- Relative change in MIC (MIC of the AMP-adpated line / MIC of the ancestral strain) ([4]; AMP-adapted line LL37_3): 1.2
- Relative change in MIC (MIC of the AMP-adpated line / MIC of the ancestral strain) ([4]; AMP-adapted line LL37_6): 1.4
- Relative change in MIC (MIC of the AMP-adpated line / MIC of the ancestral strain) ([4]; AMP-adapted line LL37_7): 64
- Relative change in MIC (MIC of the AMP-adpated line / MIC of the ancestral strain) ([4]; AMP-adapted line LL37_10): 1.6
- Relative change in MIC (MIC of the AMP-adpated line / MIC of the ancestral strain) ([4]; AMP-adapted line PEX_1): 2.3
- Relative change in MIC (MIC of the AMP-adpated line / MIC of the ancestral strain) ([4]; AMP-adapted line PEX_4): 2.3
- Relative change in MIC (MIC of the AMP-adpated line / MIC of the ancestral strain) ([4]; AMP-adapted line PEX_5): 1.4
- Relative change in MIC (MIC of the AMP-adpated line / MIC of the ancestral strain) ([4]; AMP-adapted line PEX_6): 2.8
- Relative change in MIC (MIC of the AMP-adpated line / MIC of the ancestral strain) ([4]; AMP-adapted line PEX_7): 1.7
- Relative change in MIC (MIC of the AMP-adpated line / MIC of the ancestral strain) ([4]; AMP-adapted line PR39_1): 1.4
- Relative change in MIC (MIC of the AMP-adpated line / MIC of the ancestral strain) ([4]; AMP-adapted line PR39_2): 1.1
- Relative change in MIC (MIC of the AMP-adpated line / MIC of the ancestral strain) ([4]; AMP-adapted line PR39_5): 1
- Relative change in MIC (MIC of the AMP-adpated line / MIC of the ancestral strain) ([4]; AMP-adapted line PR39_7): 0.9
- Relative change in MIC (MIC of the AMP-adpated line / MIC of the ancestral strain) ([4]; AMP-adapted line PR39_10): 0.9
- Relative change in MIC (MIC of the AMP-adpated line / MIC of the ancestral strain) ([4]; AMP-adapted line PROA_2): 1.6
- Relative change in MIC (MIC of the AMP-adpated line / MIC of the ancestral strain) ([4]; AMP-adapted line PROA_3): 0.9
- Relative change in MIC (MIC of the AMP-adpated line / MIC of the ancestral strain) ([4]; AMP-adapted line PROA_7): 1.1
- Relative change in MIC (MIC of the AMP-adpated line / MIC of the ancestral strain) ([4]; AMP-adapted line PROA_8): 1.2
- Relative change in MIC (MIC of the AMP-adpated line / MIC of the ancestral strain) ([4]; AMP-adapted line PROA_9): 0.9
- Relative change in MIC (MIC of the AMP-adpated line / MIC of the ancestral strain) ([4]; AMP-adapted line PXB_2): 0.9
- Relative change in MIC (MIC of the AMP-adpated line / MIC of the ancestral strain) ([4]; AMP-adapted line PXB_5): 1.6
- Relative change in MIC (MIC of the AMP-adpated line / MIC of the ancestral strain) ([4]; AMP-adapted line PXB_6): 4.8
- Relative change in MIC (MIC of the AMP-adpated line / MIC of the ancestral strain) ([4]; AMP-adapted line PXB_8): 2.1
- Relative change in MIC (MIC of the AMP-adpated line / MIC of the ancestral strain) ([4]; AMP-adapted line PXB_10): 6.3
